Measured values taken from patent publication US8557958B1, “Compositions and methods for treatment of diabetes” (Tarix Pharmaceuticals Ltd., priority 2012, dated 2013).
“Also recorded” adds a separate entry of the source. Bridge positions count the residues as written; N and C are the ends. Ends that are not written are not given here.

Key:
[1] = test system: streptozotocin (STZ) induced diabetic mouse model; test: Plasma insulin levels by mouse insulin ELISA in STZ induced diabetic mouse model (Example 1); format: in vivo, mouse (C57Bl/6); settings: for Plasma insulin levels as compared to vehicle treated control: days 14 and 28; for Insulin (Mean): plasma
Experimental: (§1) Following acclimatization, mice were dosed intraperitoneally (IP) with 50 mg/kg STZ solubilized in 0.05 M sodium citrate at a volume of 100 μl per mouse for five consecutive days. Blood Glucose levels were monitored beginning day 4 post STZ using a glucose meter (Accu-Chek Advantage from Roche). On day six (after five days of STZ injection) mice were grouped into four groups having average blood glucose levels of 200 mg/dL. Two groups were dosed with PanCyte (SEQ ID NO:22) 50 and 500 μg/kg body weight respectively, one group was dosed with TXA-127 (SEQ ID NO:1) 500 ug/kg, and one group was dosed with PBS as vehicle control.
Plasma insulin levels were measured on days 14 and 28 after treatment. Blood samples (approximately 50 to 100 ul) were collected and processed for plasma by centrifugation. Plasma samples were then used for the measurement of insulin levels using a mouse sensitive insulin ELISA kit (ALPCO Diagnostic), according the to manufacturer's instructions.

[2] = test system: streptozotocin (STZ) induced diabetic mouse model; test: Blood glucose in STZ induced diabetic mouse model (Example 2); format: in vivo, mouse (C57Bl/6); settings: for Blood Glucose (Mean): 50 μg/kg SC once daily; for Blood glucose levels as compared to vehicle treated group: 50 μg/kg body weight SC for twenty eight days
Experimental: C57Bl/6 female mice, 6-7 weeks old were used for the study and conditions were the same as for Example 1 above unless otherwise specified. Following acclimatization, mice were dosed intraperitoneally (IP) with 50 mg/kg STZ solubilized in 0.05 M sodium citrate buffer at a volume of 100 μl per mouse for five consecutive days. Blood Glucose levels were monitored on day 6 post STZ using Accu check glucose meter. Mice were grouped having average blood glucose levels of 200 mg/dL. There were three groups of ten mice each. Mice were dosed subcutaneously with Linear PanCyte (SEQ ID NO:6), PanCyte or vehicle for twenty-eight days. […]
Linear PanCyte and PanCyte were prepared in saline and administrated subcutaneously at a dose volume of 100 μl/mouse daily for twenty-eight days. Dosing solutions were prepared fresh every three days.
The blood glucose level was lowest in the groups treated with PanCyte 50 μg/kg followed by Linear-PanCyte 50 μg/kg.

[3] = test system: streptozotocin (STZ) induced diabetic mouse model; test: Blood glucose in STZ induced diabetic mouse model (Example 1); format: in vivo, mouse (C57Bl/6); settings: 50 and 500 μg/kg body weight; monitored 3×/week for 4 weeks post STZ; FIG. 1
Source text: Streptozotocin is a widely used chemical agent for producing Type-I Diabetes in experimental animals. The chemical is thought to cause Diabetes by direct action on the pancreatic beta cells and inhibits the insulin secretory mechanism. Depending upon the dosing regimen, streptozotocin can cause a mild, moderate, or severe diabetic condition.
C57Bl/6 female, 7-8 weeks old were used for the study. Upon arrival, mice were 6 weeks of age. All the mice were obtained from The Jackson Laboratory, Bar Harbor, Me. 04609, USA.
as §1
Blood glucose was be monitored 3×/week for 4 weeks post STZ. Blood glucose levels was be monitored using a glucose meter by placing a drop of blood directly on to the meter strip, and measuring according to manufacturer's instructions.

adipocytes = settings: administered directly to adipocytes in vitro; Liu, C. et al. 2011; cited from earlier work
diabetic mouse model = settings: Bindom et al. 2010; cited from earlier work
[4] = dose 500 μg (500 μg/kg body weight), day 14 after treatment
[5] = dose 500 μg (500 μg/kg body weight), day 28 after treatment

Substance | Plasma insulin levels as compared to vehicle treated control ([1]; 500 ug/kg weight) | Insulin (Mean) [1, 4] [ng/mL] | Insulin (Mean) [1, 5] [ng/mL] | Blood Glucose (Mean) ([2]; day 1) [mg/dL] | Blood Glucose (Mean) ([2]; day 3) [mg/dL] | Blood Glucose (Mean) ([2]; day 5) [mg/dL] | Blood Glucose (Mean) ([2]; day 8) [mg/dL] | Blood Glucose (Mean) ([2]; day 10) [mg/dL] | Blood Glucose (Mean) ([2]; day 12) [mg/dL] | Blood Glucose (Mean) ([2]; day 15) [mg/dL] | Blood Glucose (Mean) ([2]; day 17) [mg/dL] | Blood Glucose (Mean) ([2]; day 19) [mg/dL] | Blood Glucose (Mean) ([2]; day 22) [mg/dL] | Blood Glucose (Mean) ([2]; day 24) [mg/dL] | Blood Glucose (Mean) ([2]; day 26) [mg/dL] | Blood glucose levels as compared to vehicle treated group [2] | also measured
Asp^1-Arg^2-Val^3-Ser^4-Ile^5-His^6-Cys^7 [PanCyte] (DRVSIHC; bridge 4-7) | significantly higher levels of insulin | 1.016 | 0.902 | 223 | 205.3 | 197.8 | 213.2 | 230.7 | 234.8 | 232.5 | 240.3 | 230 | 237.1 | 237.3 | 232.6 | Significant differences; also recorded: lowered blood glucose levels significantly | Plasma insulin levels as compared to vehicle treated control ([1]; 50 ug/kg weight): significantly higher levels of insulin; Insulin (Mean) ([1]; dose 50 μg (50 μg/kg body weight), day 14 after treatment): 1.217 ng/mL; Insulin (Mean) ([1]; dose 50 μg (50 μg/kg body weight), day 28 after treatment): 1.244 ng/mL; Blood glucose levels [3]: decreased blood glucose levels
Asp^1-Arg^2-Val^3-Tyr^4-Ile^5-His^6-Pro^7 [TXA-127] | significantly higher levels of insulin | 1.097 | 0.954 | – | – | – | – | – | – | – | – | – | – | – | – | – | Glucose uptake (adipocytes): increased glucose uptake
D-Ala^7-Ang-(1-7) | – | – | – | – | – | – | – | – | – | – | – | – | – | – | – | – | Effect on the decrease in blood glucose and increase in insulin levels seen with ACE2 expression (diabetic mouse model): blocked the decrease in blood glucose
Asp^1-Arg^2-Val^3-Ser^4-Ile^5-His^6-Cys^7 [Linear-PanCyte] (DRVSIHC; linear) | – | – | – | 222.8 | 202.2 | 220.7 | 248.5 | 252.1 | 276.1 | 278.6 | 269.3 | 280.7 | 266.2 | 256.3 | 253 | Significant differences; also recorded: lowered blood glucose levels significantly | –
